Assay results taken from US11364275B2, “Linear lipopeptide paenipeptins and methods of using the same” (priority 2017, dated 2022).
≈ marks a conversion by molar mass, not a printed value. Where two headings read alike, the source gives them in different places. Where a SMILES comes first, the peptide text is derived from it. [ ]: non-standard residue; d: D form. The star is where a group is joined. Dab = NCC[C@H](N)C(=O)O; Cbz = O=C(OCc1ccccc1)*

How the values were obtained:
Cytotoxicity, MTT assay = assay type: cell-based, human; conditions: human, HEK 293 cells, HEK 293, 24 h, read-out: Viability
Description: (§1) Cytotoxicity of paenipeptin analogues was determined against a human kidney cell line (HEK 293) using MTT assays (Huang E, Yousef AE. 2014. Paenibacterin, a novel broad-spectrum lipopeptide antibiotic, neutralises endotoxins and promotes survival in a murine model of Pseudomonas aeruginosa-induced sepsis. Int J Antimicrob Agents 44: 74-77). Cell viability was measured at 24 h following the addition of lipopeptides at concentrations between 30-105 μg/ml. The viability of human embryonic kidney cells (HEK 293) decreased with the increase of paenipeptin concentration. The viability of HEK 293 cells in the presence of paenipeptin analogue 1 and 15 at 105 μg/ml was 61% and 67%, respectively (Table 10). The relatively low cytotoxicity of paenipeptin analogue 1 and 15 was correlated with their low hemolytic activity against red blood cells.

[1] = tested on: human kidney cell line (HEK 293); experiment: Cytotoxicity, MTT assay; assay type: cell-based; conditions: HEK 293; 105 μg/ml; 24 h
Description: as §1

[2] = tested on: K. pneumoniae FDA-CDC AR 0097; conditions: K. pneumoniae AR 0097
[3] = tested on: Staphylococcus aureus ATCC 29213; assay type: cell-based; conditions: S. aureus ATCC 29213; TSB
[4] = tested on: Klebsiella pneumoniae ATCC 13883; assay type: cell-based; conditions: K. pneumoniae ATCC 13883; TSB
[5] = tested on: A. baumannii FDA-CDC AR 0052; conditions: A. baumannii AR 0052
[6] = tested on: K. pneumoniae FDA-CDC AR 0080; conditions: K. pneumoniae AR 0080
[7] = tested on: K. pneumoniae FDA-CDC AR 0034; conditions: K. pneumoniae AR 0034
[8] = tested on: Acinetobacter baumannii ATCC 19606; assay type: cell-based; conditions: A. baumannii ATCC 19606; TSB
Description: (§3) The minimum inhibitory concentration (MIC) of paenipeptin analogues was determined using the broth microdilution method (Wirker, M. A. Methods for Dilution Antimicrobial Susceptibility Tests for Bacteria that Grow Aerobically: Approved Standard M07-A8; Clinical and Laboratory Standards Institute, Wayne, Pa., 2009). Seven reference strains (Acinetobacter baumannii ATCC 19606, Escherichia coli ATCC 25922, Klebsiella pneumoniae ATCC 13883, Pseudomonas aeruginosa ATCC 27853, Enterococcus faecium ATCC 19434, Staphylococcus aureus ATCC 29213 and methicillin-resistant S. aureus ATCC 43300) were subjected to MIC testing.
(§4) Paenipeptin analogues were two-fold diluted in tryptic soy broth (TSB; Becton Dickinson) and mixed with an equal volume of bacterial suspensions in TSB containing approximately 1.5×10^5 colony-forming units (CFU)/mL in a clear UV-sterilized 96-well microtiter plate (NBS, Corning Inc., Corning, N.Y.). […] The microtiter plate was incubated at 37° C. for 18-20 h.

[9] = tested on: A. baumannii FDA-CDC AR 0063; experiment: Time-kill kinetics in 95% human serum, alone and combined; assay type: cell-based, Acinetobacter baumannii; conditions: A. baumannii AR 0063, 24 h
Description: (§2) Bacterial viable counts were determined at 0, 2, 4, 6, and 24 h after antimicrobial treatment. Bacterial surviving counts at 24 h endpoints were subjected to analysis of variance (ANOVA) followed by Tukey's honest significant difference (HSD) tests using SPSS Statistics (version 24; SPSS, Inc., Chicago, Ill., USA).
To further test the therapeutic potential of paenipeptin analogues, the time-kill kinetics assays of paenipeptins alone or in combination with other antibiotics were performed in 95% human serum in vitro. Without antimicrobial treatment, the population of A. baumannii FDA-CDC AR 0063 increased from 5.8 log to 9.3 log within 24 h. […] (FIG. 7A).

[10] = tested on: A. baumannii FDA-CDC AR 0037; conditions: A. baumannii AR 0037
[11] = tested on: Escherichia coli ATCC 25922; assay type: cell-based; conditions: E. coli ATCC 25922; TSB
Description: as §3, §4

[12] = tested on: Pseudomonas aeruginosa ATCC 27853; assay type: cell-based; conditions: P. aeruginosa ATCC 27853; TSB
Description: as §3, §4

[13] = tested on: Enterococcus faecium ATCC 19434; assay type: cell-based; conditions: E. faecium ATCC 19434; TSB
[14] = tested on: methicillin-resistant S. aureus ATCC 43300; assay type: cell-based, Staphylococcus aureus; conditions: S. aureus ATCC 43300; TSB
Description: as §3, §4

[15] = tested on: K. pneumoniae FDA-CDC AR 0044; conditions: K. pneumoniae AR 0044
[16] = tested on: A. baumannii FDA-CDC AR 0063; conditions: A. baumannii AR 0063
[17] = tested on: A. baumannii FDA-CDC AR 0083; conditions: A. baumannii AR 0083
[18] = tested on: K. pneumoniae FDA-CDC AR0097; experiment: Time-kill kinetics in 95% human serum, alone and combined; assay type: cell-based, Klebsiella pneumoniae
Description: as §2
To further test the therapeutic potential of paenipeptin analogues, the time-kill kinetics assays of paenipeptins alone or in combination with other antibiotics were performed in 95% human serum in vitro.

[19] = tested on: A. baumannii FDA-CDC AR 0070; conditions: A. baumannii AR 0070
[20] = tested on: K. pneumoniae FDA-CDC AR 0068; conditions: K. pneumoniae AR 0068

Compound: CC[C@H](C)[C@H](NC(=O)[C@H](CCN)NC(=O)OCc1ccccc1)C(=O)N[C@@H](CCN)C(=O)N[C@H](Cc1ccccc1)C(=O)N[C@@H](CC(C)C)C(=O)N[C@@H](CCN)C(=O)N[C@@H](C(=O)N[C@@H](CC(C)C)C(=O)N[C@@H](CO)C(N)=O)C(C)C [Analogue 15] (Cbz-[Dab]I[Dab][dF]L[Dab][dV]LS-NH2)
- viability at 24 h, 30 µg/mL (Cytotoxicity, MTT assay; 30 μg/ml): 91.4 ± 4.09%
- viability at 24 h, 45 µg/mL (Cytotoxicity, MTT assay; 45 μg/ml): 84.3 ± 8.12%
- viability at 24 h, 60 µg/mL (Cytotoxicity, MTT assay; 60 μg/ml): 82 ± 4.54%
- viability at 24 h, 75 µg/mL (Cytotoxicity, MTT assay; 75 μg/ml): 73.3 ± 5.37%
- viability at 24 h, 90 µg/mL (Cytotoxicity, MTT assay; 90 μg/ml): 67.1 ± 10%
- viability at 24 h, 105 µg/mL (Cytotoxicity, MTT assay; 105 μg/ml): 67.5 ± 9.66%
- Viability [1]: 67%
- MIC of clarithromycin at the presence of PMBN or paenipeptin analogue at 4 μg/ml [2]: 0.0078-0.0156 μg/ml
- MIC of rifampicin at the presence of PMBN or paenipeptin analogue at 4 μg/ml [2]: 0.0019-0.0039 μg/ml
- MIC alone ([2]; 10% FBS): 16 to 32 µg/mL
- MIC alone ([2]; No FBS): >32 µg/mL
- MIC [3]: >32 µg/mL
- MIC [4]: >32 µg/mL
- MIC alone ([5]; 10% FBS): <0.5 µg/mL
- MIC alone ([5]; No FBS): ≤0.5 µg/mL
- MIC of clarithromycin at the presence of PMBN or paenipeptin analogue at 4 μg/ml [6]: 0.0156 μg/ml
- MIC of rifampicin at the presence of PMBN or paenipeptin analogue at 4 μg/ml [6]: 0.0313 μg/ml
- MIC alone ([6]; 10% FBS): 32 µg/mL (≈ 28.5 µM)
- MIC alone ([6]; No FBS): 32 µg/mL (≈ 28.5 µM)
- MIC of clarithromycin at the presence of PMBN or paenipeptin analogue at 4 μg/ml [7]: 0.125-0.5 μg/ml
- MIC of rifampicin at the presence of PMBN or paenipeptin analogue at 4 μg/ml [7]: ≤0.0019 μg/ml
- MIC alone ([7]; 10% FBS): >32 µg/mL
- MIC alone ([7]; No FBS): ≥32 µg/mL
- MIC [8]: 16 µg/mL (≈ 14.2 µM)
- decrease of bacterial population, analogue 4 μg/ml in combination with rifampicin 4 μg/ml [9]: 2.7 log
- log reduction, analogue 4 μg/ml in combination with clarithromycin 4 μg/ml [9]: 0.7 log
- MIC of rifampicin at the presence of PMBN or paenipeptin analogue at 4 μg/ml [10]: ≤0.0019 μg/ml
- MIC alone ([10]; 10% FBS): 4 µg/mL (≈ 3.56 µM)
- MIC alone ([10]; No FBS): 8 µg/mL (≈ 7.11 µM)
- increase in antibiotic activity of clarithromycin ([10]; analogue at 4 μg/mL): 8192 fold
- MIC [11]: 8 to 16 µg/mL
- MIC [12]: 16 µg/mL (≈ 14.2 µM)
- MIC [13]: >32 µg/mL
- MIC [14]: >32 µg/mL
- MIC of clarithromycin at the presence of PMBN or paenipeptin analogue at 4 μg/ml [15]: 0.0078-0.0156 μg/ml
- MIC of rifampicin at the presence of PMBN or paenipeptin analogue at 4 μg/ml [15]: ≤0.0019 μg/ml
- MIC alone ([15]; 10% FBS): 16 to 32 µg/mL
- MIC alone ([15]; No FBS): 32 µg/mL (≈ 28.5 µM)
- MIC alone ([16]; 10% FBS): 2 µg/mL (≈ 1.78 µM)
- MIC alone ([16]; No FBS): 0.5 to 4 µg/mL
- MIC of clarithromycin at the presence of PMBN or paenipeptin analogue at 4 μg/ml [17]: 1-4 μg/ml
- MIC of rifampicin at the presence of PMBN or paenipeptin analogue at 4 μg/ml [17]: 0.0313-0.0625 μg/ml
- MIC alone ([17]; 10% FBS): 4 to 8 µg/mL
- MIC alone ([17]; No FBS): 8 to 16 µg/mL
- log reduction, analogue 4 μg/ml in combination with rifampicin 4 μg/ml ([18]; 24 h): 4.6 log
- log inactivation, single agent at 4 μg/ml ([18]; within 24 h): didn't show bactericidal activity
- MIC alone ([19]; 10% FBS): 0.5 to 1 µg/mL
- MIC alone ([19]; No FBS): ≤0.5 µg/mL
- MIC of clarithromycin at the presence of PMBN or paenipeptin analogue at 4 μg/ml [20]: >32 μg/ml
- MIC of rifampicin at the presence of PMBN or paenipeptin analogue at 4 μg/ml [20]: 0.0039-0.0078 μg/ml
- MIC alone ([20]; 10% FBS): >32 µg/mL
- MIC alone ([20]; No FBS): >32 µg/mL
